Settings: Liquid, X-ray view cell

c1ccccc1 [benzene]
Settings | vapor or sublimation pressure [kPa]
378.35 K | 205
401.25 K | 366
421.85 K | 572
437.45 K | 778
460.35 K | 1173
480.45 K | 1622
500.15 K | 2183
520.05 K | 2877

From the NIST ThermoML archive (doi:10.1016/j.fluid.2016.07.004)
